Source: ChEMBL document CHEMBL2150910, “Initial Optimization of a New Series of γ-Secretase Modulators Derived from a Triterpene Glycoside” (ACS Med Chem Lett, 2012)

Tests used:
[1] = Inhibition of gamma-secretase-mediated amyloid beta-42 production in diluted 2B7 conditioned media after 5 hrs
[2] = Inhibition of gamma-secretase-mediated amyloid beta-40 production in diluted 2B7 conditioned media after 5 hrs
[3] = Inhibition of gamma-secretase-mediated amyloid beta-40 production in diluted 2B7 conditioned media at 4 uM after 5 hrs
[4] = Inhibition of gamma-secretase-mediated amyloid beta-40 production in diluted 2B7 conditioned media at 20 uM after 5 hrs

SMILES	IC50 [1] [nM]	IC50 [2] [nM]	inhibition [3] [%]	inhibition [4] [%]
CC(=O)OC(C)(C)[C@H]1O[C@@]23O[C@@H]1C[C@@H](C)C2[C@@]1(C)CC[C@@]24C[C@@]25CC[C@H](O[C@@H]2OC[C@@H](O)[C@H](O)[C@H]2O)C(C)(C)[C@@H]5CC[C@H]4[C@]1(C)[C@H]3O (some centres undefined)	3000			
CC(=O)O[C@@H]([C@H]1C[C@@H](C)[C@H]2[C@H](O1)[C@H](O)[C@@]1(C)[C@@H]3CC[C@H]4C(C)(C)[C@@H](O[C@H]5CN(C)CCO5)CC[C@@]45C[C@@]35CC[C@]21C)C(C)(C)O	130	3400		
CC(=O)O[C@@H]([C@H]1C[C@@H](C)[C@H]2[C@H](O1)[C@H](O)[C@@]1(C)[C@@H]3CC[C@H]4C(C)(C)[C@@H](O[C@H]5CN(CC(N)=O)CCO5)CC[C@@]45C[C@@]35CC[C@]21C)C(C)(C)O	150	7800		
CC(=O)O[C@@H]([C@H]1C[C@@H](C)[C@H]2[C@H](O1)[C@H](O)[C@@]1(C)[C@@H]3CC[C@H]4C(C)(C)[C@@H](O[C@H]5CN(C6CCOCC6)CCO5)CC[C@@]45C[C@@]35CC[C@]21C)C(C)(C)O	180		38	
CC(=O)O[C@@H]([C@H]1C[C@@H](C)[C@H]2[C@H](O1)[C@H](O)[C@@]1(C)[C@@H]3CC[C@H]4C(C)(C)[C@@H](O[C@H]5CN(Cc6ncc[nH]6)CCO5)CC[C@@]45C[C@@]35CC[C@]21C)C(C)(C)O	120		38	
COCCN1CCO[C@@H](O[C@H]2CC[C@]34C[C@]35CC[C@]3(C)[C@@H]6[C@H](O[C@@H]([C@H](OC(C)=O)C(C)(C)O)C[C@H]6C)[C@H](O)[C@@]3(C)[C@@H]5CC[C@H]4C2(C)C)C1	210	7600		
CC(=O)O[C@@H]([C@H]1C[C@@H](C)[C@H]2[C@H](O1)[C@H](O)[C@@]1(C)[C@@H]3CC[C@H]4C(C)(C)[C@@H](O[C@H]5CN(C(=O)CC6CC6)CCO5)CC[C@@]45C[C@@]35CC[C@]21C)C(C)(C)O	130			38
CC(=O)O[C@@H]([C@H]1C[C@@H](C)[C@H]2[C@H](O1)[C@H](O)[C@@]1(C)[C@@H]3CC[C@H]4C(C)(C)[C@@H](O[C@H]5CN([C@H]6CCNC6=O)CCO5)CC[C@@]45C[C@@]35CC[C@]21C)C(C)(C)O	200	7000		
CC(=O)O[C@@H]([C@H]1C[C@@H](C)[C@H]2[C@H](O1)[C@H](O)[C@@]1(C)[C@@H]3CC[C@H]4C(C)(C)[C@@H](O[C@@H](CN(C)C)OCCN(C)C)CC[C@@]45C[C@@]35CC[C@]21C)C(C)(C)O	2400			
C[C@@H]1C[C@H]([C@H](O)C(C)(C)O)O[C@H]2[C@H]1[C@@]1(C)CC[C@@]34C[C@@]35CC[C@H](O)C(C)(C)[C@@H]5CC[C@H]4[C@]1(C)[C@H]2O	> 10000			
CC(=O)O[C@@H]([C@H]1C[C@@H](C)[C@H]2[C@H](O1)[C@H](O)[C@@]1(C)[C@@H]3CC[C@H]4C(C)(C)[C@@H](O[C@H]5CN(CCC(=O)O)CCO5)CC[C@@]45C[C@@]35CC[C@]21C)C(C)(C)O	490	18800		
CCN1CCO[C@@H](O[C@H]2CC[C@]34C[C@]35CC[C@]3(C)[C@@H]6[C@H](O[C@@H]([C@H](OC(C)=O)C(C)(C)O)C[C@H]6C)[C@H](O)[C@@]3(C)[C@@H]5CC[C@H]4C2(C)C)C1	190		42	
CC(=O)O[C@@H]([C@H]1C[C@@H](C)[C@H]2[C@H](O1)[C@H](O)[C@@]1(C)[C@@H]3CC[C@H]4C(C)(C)[C@@H](O[C@H]5CN(CC(=O)O)CCO5)CC[C@@]45C[C@@]35CC[C@]21C)C(C)(C)O	370	14000		
CC(=O)O[C@@H]([C@H]1C[C@@H](C)[C@H]2[C@H](O1)[C@H](O)[C@@]1(C)[C@@H]3CC[C@H]4C(C)(C)[C@@H](O[C@H]5CN([C@@H]6CCNC6=O)CCO5)CC[C@@]45C[C@@]35CC[C@]21C)C(C)(C)O	120			44
CC(=O)O[C@@H]([C@H]1C[C@@H](C)[C@H]2[C@H](O1)[C@H](O)[C@@]1(C)[C@@H]3CC[C@H]4C(C)(C)[C@@H](O)CC[C@@]45C[C@@]35CC[C@]21C)C(C)(C)O	600			
CC(=O)O[C@@H]([C@H]1C[C@@H](C)[C@H]2[C@H](O1)[C@H](O)[C@@]1(C)[C@@H]3CC[C@H]4C(C)(C)[C@@H](O[C@H]5CN(C(=O)C6(C)COC6)CCO5)CC[C@@]45C[C@@]35CC[C@]21C)C(C)(C)O	80	8000		
CC(=O)O[C@@H]([C@H]1C[C@@H](C)[C@H]2[C@H](O1)[C@H](O)[C@@]1(C)[C@@H]3CC[C@H]4C(C)(C)[C@@H](O[C@@H](CO)OCCO)CC[C@@]45C[C@@]35CC[C@]21C)C(C)(C)O	100			

SMILES	IC50 [1] [nM]	IC50 [2] [nM]	inhibition [3] [%]	inhibition [4] [%]
CC(=O)O[C@@H]([C@H]1C[C@@H](C)[C@H]2[C@H](O1)[C@H](O)[C@@]1(C)[C@@H]3CC[C@H]4C(C)(C)[C@@H](O[C@H]5CN(CC(F)(F)F)CCO5)CC[C@@]45C[C@@]35CC[C@]21C)C(C)(C)O	1190			47
CC(=O)O[C@@H]([C@H]1C[C@@H](C)[C@H]2[C@H](O1)[C@H](O)[C@@]1(C)[C@@H]3CC[C@H]4C(C)(C)[C@@H](O[C@H]5CN(C(C)=O)CCO5)CC[C@@]45C[C@@]35CC[C@]21C)C(C)(C)O	90	13400		
CC(=O)O[C@@H]([C@H]1C[C@@H](C)[C@H]2[C@H](O1)[C@H](O)[C@@]1(C)[C@@H]3CC[C@H]4C(C)(C)[C@@H](O[C@H]5CN(S(C)(=O)=O)CCO5)CC[C@@]45C[C@@]35CC[C@]21C)C(C)(C)O	80			40
C[C@@H]1C[C@H]([C@H](O)C(C)(C)O)O[C@H]2[C@H]1[C@@]1(C)CC[C@@]34C[C@@]35CC[C@H](O[C@@H]3OC[C@@H](O)[C@H](O)[C@H]3O)C(C)(C)[C@@H]5CC[C@H]4[C@]1(C)[C@H]2O	3100			
CC(=O)O[C@@H]([C@H]1C[C@@H](C)[C@H]2[C@H](O1)[C@H](O)[C@@]1(C)[C@@H]3CC[C@H]4C(C)(C)[C@@H](O[C@H]5CN(C(=O)N(C)C)CCO5)CC[C@@]45C[C@@]35CC[C@]21C)C(C)(C)O	60			40
CC(=O)O[C@@H]([C@H]1C[C@@H](C)[C@H]2[C@H](O1)[C@H](O)[C@@]1(C)[C@@H]3CC[C@H]4C(C)(C)[C@@H](O[C@H]5CN(CC(C)(C)O)CCO5)CC[C@@]45C[C@@]35CC[C@]21C)C(C)(C)O	230	9400		
CC(=O)O[C@@H]([C@H]1C[C@@H](C)[C@H]2[C@H](O1)[C@H](O)[C@@]1(C)[C@@H]3CC[C@H]4C(C)(C)[C@@H](O[C@H]5CN(CC(=O)N(C)C)CCO5)CC[C@@]45C[C@@]35CC[C@]21C)C(C)(C)O	140	9000		
CC(=O)O[C@@H]([C@H]1C[C@@H](C)[C@H]2[C@H](O1)[C@H](O)[C@@]1(C)[C@@H]3CC[C@H]4C(C)(C)[C@@H](O[C@H]5CN(C6CC6)CCO5)CC[C@@]45C[C@@]35CC[C@]21C)C(C)(C)O	1000			35
CC(=O)O[C@@H]([C@H]1C[C@@H](C)[C@H]2[C@H](O1)[C@H](O)[C@@]1(C)[C@@H]3CC[C@H]4C(C)(C)[C@@H](O[C@H]5CN(C(=O)c6ccno6)CCO5)CC[C@@]45C[C@@]35CC[C@]21C)C(C)(C)O	70	4800		
CCCN1CCO[C@@H](O[C@H]2CC[C@]34C[C@]35CC[C@]3(C)[C@@H]6[C@H](O[C@@H]([C@H](OC(C)=O)C(C)(C)O)C[C@H]6C)[C@H](O)[C@@]3(C)[C@@H]5CC[C@H]4C2(C)C)C1	680	15900		
CC(=O)O[C@@H]([C@H]1C[C@@H](C)[C@H]2[C@H](O1)[C@H](O)[C@@]1(C)[C@@H]3CC[C@H]4C(C)(C)[C@@H](O[C@H]5CN(C6CCC6)CCO5)CC[C@@]45C[C@@]35CC[C@]21C)C(C)(C)O	350		44	
CC(=O)O[C@@H]([C@H]1C[C@@H](C)[C@H]2[C@H](O1)C(=O)[C@@]1(C)[C@@H]3CC[C@H]4C(C)(C)[C@@H](O[C@@H]5OC[C@@H](O)[C@H](O)[C@H]5O)CC[C@@]45C[C@@]35CC[C@]21C)C(C)(C)O	600			
CC(=O)O[C@@H]([C@H]1C[C@@H](C)[C@H]2[C@H](O1)[C@H](O)[C@@]1(C)[C@@H]3CC[C@H]4C(C)(C)[C@@H](O[C@H]5CN(C(=O)c6cn(C)cn6)CCO5)CC[C@@]45C[C@@]35CC[C@]21C)C(C)(C)O	130			44
CC(=O)O[C@@H]([C@H]1C[C@@H](C)[C@H]2[C@H](O1)[C@H](O)[C@@]1(C)[C@@H]3CC[C@H]4C(C)(C)[C@@H](O[C@H]5CN(CCO)CCO5)CC[C@@]45C[C@@]35CC[C@]21C)C(C)(C)O	240		46	
CC(=O)O[C@@H]([C@H]1C[C@@H](C)[C@H]2[C@H](O1)[C@H](O)[C@@]1(C)[C@@H]3CC[C@H]4C(C)(C)[C@@H](O[C@H]5CN(CCN6CCOCC6)CCO5)CC[C@@]45C[C@@]35CC[C@]21C)C(C)(C)O	160		49	
CC(=O)O[C@@H]([C@H]1C[C@@H](C)[C@H]2[C@H](O1)[C@H](O)[C@@]1(C)[C@@H]3CC[C@H]4C(C)(C)[C@@H](O[C@H]5CN(Cc6ccccc6)CCO5)CC[C@@]45C[C@@]35CC[C@]21C)C(C)(C)O	2000		4	
